# In patent publication US20240208909A1, “SUBSTITUTED QUINOLINE DERIVATIVES HAVING SOS1 INHIBITION ACTIVITIES AND USES THEREOF” (Accutar Biotechnology Inc., priority 2022, published 2024):
# Tests used:
# [1] = biological target: SOS1/KRAS-G12D (Homo sapiens (Human), UniProt Q07889); test: SOS1/KRAS-G12D binding inhibition assay (AlphaScreen); settings: GST-SOS1 and 6*His KRAS-G12D, read-out: KrasG12D/SOS1 binding IC50
# Procedure: Example 22: SOS1/KRAS-G12D Binding Inhibition Assay
# SOS1 binding affinity of candidate compounds was measured by monitoring the interaction of SOS1 with KRAS-G12D in the presence of the test compound. Briefly, 5 nM GST tagged SOS1 proteins (final concentration) were pre-incubated with 50 nM 6*His tagged KRAS-G12D proteins (final concentration) in an assay buffer containing 10 mM HEPES, pH 7.4, 150 mM NaCl, 1 mM DTT, 5 mM MgCl2, 0.1% Tween-20, and 0.05% BSA for 30 minutes. The test compounds in 2% DMSO (final concentration) at various concentrations were then added to the reaction mixture and incubated for another 30 minutes at 4° C. 5 ug/ml GSH AlphaScreen donor beads (PerkinElmer, 6765300) and 5 ug/ml nickel chelate (Ni-NTA) AlphaScreen acceptor beads (PerkinElmer, 6760619C) (final concentrations) were then added to the mixture. After an incubation of 2 hours at 4° C., the fluorescent signals were obtained on the EnVision® 2105 Multilabel Plate Reader (PerkinElmer).
# Raw AlphaScreen data were converted to a percentage of inhibition (relative to DMSO) using the following equations: • a) For a given test compound concentration X:
# Signal (X)=Signal (SOS1 & KRAS-G12D & compound)-Signal (buffer & KRAS-G12D & compound)
# Percentage of inhibition at concentration X=[1−Signal (X)/Signal (DMSO)]*100% b)
# The IC50 values were determined by nonlinear regression of plots of [inhibitor] vs. percentage of inhibition with variable slope, analyzed using GraphPad Prism 9.
# [2] = test system: K562 cells; test: Cell growth inhibition of K562 cells (CellTiter-Glo); assay type: cell-based; settings: Homo sapiens, 120 h, 5 days
# Procedure: Example 24: Cell Growth Inhibition of K562 Cells
# K562 cells were obtained from American Type Culture Collection (ATCC). For cell growth assay, K562 cells were seeded in 96-well plates at 1000 cells/well in 90 μl of RPM11640 growth medium containing 10% FBS and 1% Penicillin Streptomycin, and then incubated at 37° C. for 1 hour. The test compound was administered to the cells by using 1000× compound stock solution prepared in DMSO at various concentrations. 1000× compound stock solution was first diluted in culturing medium to 10×, then 10 uL compound medium was added to each well in the cell plates. After administration of the compound, the cells were then incubated at 37° C. for 5 days. Upon completion, the plates were equilibrated at room temperature for approximately 10 minutes. 100 ul of CellTiter-Glo® Reagent (Promega) was added to each well. The plates were then incubated at room temperature for 10 minutes and luminescence was recorded by EnSpire plate reader (PerkinElmer).
# [3] = test system: Phospho-ERK1/2 in DLD1 cells; test: Phospho-ERK1/2 expression inhibition in DLD1 cells; assay type: cell-based; settings: Homo sapiens, DLD-1, 4 hours, read-out: DLD1 pERK IC50
# Procedure: Example 23: Phospho-ERK1/2 Expression Inhibition in DLD1 Cells
# DLD1 cells were obtained from American Type Culture Collection (ATCC). DLD1 cells were plated in 96-well plates (VWR #10062-900, or Corning #3904) in 90 uL culture medium at a density of 15,000 cells/well in the RPM11640 growth medium containing 10% FBS and 1% Penicillin Streptomycin, and then incubated at 37° C. overnight. The following day, the test compound was administered to the cells by using 1000×x compound stock solution prepared in DMSO at various concentrations. 1000× compound stock solution was first diluted in culturing medium to 10×, then 10 uL compound medium was added to each well in the cell plates. After administration of the compound, the cells were then incubated at 37° C. for 4 hours. Upon completion, the cells were washed with PBS briefly. 150 uL/well of 4% formaldehyde was added and the plates were incubated at room temperature for 20 mins. The cells were washed with PBS briefly, and permeabilized with 150 uL/well of ice cold 100% methanol for 10 mins. The cells were washed with PBS briefly and blocked with 100 uL/well LI-COR blocking buffer for 1 hr at room temperature with gentle shaking. The cells were incubated overnight at 4° C. with 50 uL primary antibody rabbit anti-Phospho-ERK1/2 (1: 500, Cell Signaling, #4370) diluted in Intercept Blocking Buffer (LI-COR, #927-60001) containing 0.1% Tween 20. The next day, the cells were washed with 200 uL PBS containing 0.1% Tween 20, 5×5 mins at room temperature with gentle shaking, and incubated with 50 uL secondary antibody, IRDye® 800CW Goat anti-Rabbit IgG (LI-COR, #926-32211), 1:1000, in LI-COR blocking buffer with 0.2% Tween 20 for 1 hr at room temperature with gentle shaking. The cells were washed with 200 uL PBS containing 0.1% Tween 20, 5×5 mins at room temperature with gentle shaking. The cells were washed with PBS for 5 mins. 100 uL fresh PBS was added to each well and the plates were imaged on a LI-COR Odyssey CLX plate reader.
# Sequence of SOS1/KRAS-G12D (Q07889 564-1049 limits assumed): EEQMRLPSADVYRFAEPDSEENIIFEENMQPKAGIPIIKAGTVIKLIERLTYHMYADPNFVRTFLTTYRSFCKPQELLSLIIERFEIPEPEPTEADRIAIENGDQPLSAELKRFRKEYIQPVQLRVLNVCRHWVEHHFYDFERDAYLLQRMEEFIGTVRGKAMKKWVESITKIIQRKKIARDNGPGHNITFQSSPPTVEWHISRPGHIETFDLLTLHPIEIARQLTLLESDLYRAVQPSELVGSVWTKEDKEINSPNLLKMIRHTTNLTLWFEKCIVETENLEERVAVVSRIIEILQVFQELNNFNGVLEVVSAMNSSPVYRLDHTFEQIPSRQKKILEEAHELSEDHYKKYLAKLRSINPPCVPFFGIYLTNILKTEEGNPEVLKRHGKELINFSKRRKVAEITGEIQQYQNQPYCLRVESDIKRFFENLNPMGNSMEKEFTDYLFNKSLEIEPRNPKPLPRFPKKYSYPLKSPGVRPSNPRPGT
SMILES,IC50 [1],GI50 [2],IC50 [3]
"Cc1c([C@@H](C)Nc2ccnc3ccc(N4CCN(C(=O)C5CCOC5)CC4)cc23)cccc1C(F)(F)F (stereo partly drawn) [Compound 6, (4-(4-(((R)-1-(2-methyl-3-(trifluoromethyl)phenyl)ethyl)amino)quinolin-6-yl)piperazin-1-yl)(tetrahydrofuran-3-yl)methanone]",10 to 100 nM,100 to 500 nM,150 to 500 nM
"C[C@@H](Nc1ccnc2ccc(N3CC[C@@H](NC(=O)OC(C)(C)C)C3)cc12)c1cccc(C(F)F)c1F [Compound 8, tert-butyl ((R)-1-(4-(((R)-1-(3-(difluoromethyl)-2-fluorophenyl)ethyl)amino)quinolin-6-yl)pyrrolidin-3-yl)carbamate]",10 to 100 nM,> 500 nM,150 to 500 nM
"C[C@@H](Nc1ccnc2ccc(N3CC[C@@H](N)C3)cc12)c1cccc(C(F)F)c1F [Compound 9, 6-((R)-3-aminopyrrolidin-1-yl)-N-((R)-1-(3-(difluoromethyl)-2-fluorophenyl)ethyl)quinolin-4-amine]",≤ 10 nM,100 to 500 nM,150 to 500 nM
"C[C@@H](Nc1ccnc2ccc(C3CCNCC3)cc12)c1cccc(C(F)F)c1F [Compound 10, (R)-N-(1-(3-(difluoromethyl)-2-fluorophenyl)ethyl)-6-(piperidin-4-yl)quinolin-4-amine]",10 to 100 nM,100 to 500 nM,> 500 nM
"CC(=O)N[C@@H]1CCN(c2ccc3nccc(N[C@H](C)c4cccc(C(F)F)c4F)c3c2)C1 [Compound 11, N-((R)-1-(4-(((R)-1-(3-(difluoromethyl)-2-fluorophenyl)ethyl)amino)quinolin-6-yl)pyrrolidin-3-yl)acetamide]",10 to 100 nM,≤ 100 nM,150 to 500 nM
"CC(=O)N1CCN(c2ccc3nccc(N[C@H](C)c4cccc(C(F)F)c4F)c3c2)CC1 [Compound 12, (R)-1-(4-(4-((1-(3-(difluoromethyl)-2-fluorophenyl)ethyl)amino)quinolin-6-yl)piperazin-1-yl)ethan-1-one]",≤ 10 nM,≤ 100 nM,≤ 150 nM
"CC(=O)N1CCC(c2ccc3nccc(N[C@H](C)c4cccc(C(F)F)c4F)c3c2)CC1 [Compound 13, (R)-1-(4-(4-((1-(3-(difluoromethyl)-2-fluorophenyl)ethyl)amino)quinolin-6-yl)piperidin-1-yl)ethan-1-one]",≤ 10 nM,≤ 100 nM,150 to 500 nM
"C[C@@H](Nc1ccnc2ccc(N3CCN(C(=O)[C@H]4CCOC4)CC3)cc12)c1cccc(C(F)F)c1F [Compound 14, (4-(4-(((R)-1-(3-(difluoromethyl)-2-fluorophenyl)ethyl)amino)quinolin-6-yl)piperazin-1-yl)((S)-tetrahydrofuran-3-yl)methanone]",≤ 10 nM,≤ 100 nM,150 to 500 nM
"C[C@@H](Nc1ccnc2ccc(N3CCN(C(=O)[C@@H]4CCOC4)CC3)cc12)c1cccc(C(F)F)c1F [Compound 15, (4-(4-(((R)-1-(3-(difluoromethyl)-2-fluorophenyl)ethyl)amino)quinolin-6-yl)piperazin-1-yl)((R)-tetrahydrofuran-3-yl)methanone]",≤ 10 nM,100 to 500 nM,≤ 150 nM
"C[C@@H](Nc1ccnc2ccc(N3CCN(C(=O)C4COC4)CC3)cc12)c1cccc(C(F)F)c1F [Compound 16, (R)-(4-(4-((1-(3-(difluoromethyl)-2-fluorophenyl)ethyl)amino)quinolin-6-yl)piperazin-1-yl)(oxetan-3-yl)methanone]",≤ 10 nM,≤ 100 nM,≤ 150 nM
"CC(C)C(=O)N1CCN(c2ccc3nccc(N[C@H](C)c4cccc(C(F)F)c4F)c3c2)CC1 [Compound 17, (R)-1-(4-(4-((1-(3-(difluoromethyl)-2-fluorophenyl)ethyl)amino)quinolin-6-yl)piperazin-1-yl)-2-methylpropan-1-one]",≤ 10 nM,100 to 500 nM,≤ 150 nM
"C[C@@H](Nc1ccnc2ccc(N3CC[C@H](N)C3)cc12)c1cccc(C(F)F)c1F [Compound 18, 6-((S)-3-aminopyrrolidin-1-yl)-N-((R)-1-(3-(difluoromethyl)-2-fluorophenyl)ethyl)quinolin-4-amine]",10 to 100 nM,> 500 nM,> 500 nM
"Cc1c([C@@H](C)Nc2ccnc3ccc(N4CC5CC(C4)O5)cc23)cccc1C(F)(F)F [Compound 19, 6-(6-oxa-3-azabicyclo[3.1.1]heptan-3-yl)-N-((R)-1-(2-methyl-3-(trifluoromethyl)phenyl)ethyl)quinolin-4-amine]",> 100 nM,100 to 500 nM,> 500 nM
"Cc1c([C@@H](C)Nc2ccnc3ccc(N4CC[C@@H](N)C4)cc23)cccc1C(F)(F)F [Compound 20, 6-((R)-3-aminopyrrolidin-1-yl)-N-((R)-1-(2-methyl-3-(trifluoromethyl)phenyl)ethyl)quinolin-4-amine]",> 100 nM,> 500 nM,> 500 nM
"Cc1c([C@@H](C)Nc2ccnc3ccc(N4CC5(CCN(C)C5=O)C4)cc23)cccc1C(F)(F)F [Compound 21, (R)-6-methyl-2-(4-((1-(2-methyl-3-(trifluoromethyl)phenyl)ethyl)amino)quinolin-6-yl)-2,6-diazaspiro[3.4]octan-5-one]",> 100 nM,> 500 nM,> 500 nM
"Cc1c([C@@H](C)Nc2ccnc3ccc(N4C[C@@H]5C[C@H]4CO5)cc23)cccc1C(F)(F)F [Compound 22, 6-((1S,4S)-2-oxa-5-azabicyclo[2.2.1]heptan-5-yl)-N-((R)-1-(2-methyl-3-(trifluoromethyl)phenyl)ethyl)quinolin-4-amine]",> 100 nM,> 500 nM,> 500 nM
"Cc1c([C@@H](C)Nc2ccnc3ccc(N4CCC5(CCN(C)C5=O)CC4)cc23)cccc1C(F)(F)F [Compound 23, (R)-2-methyl-8-(4-((1-(2-methyl-3-(trifluoromethyl)phenyl)ethyl)amino)quinolin-6-yl)-2,8-diazaspiro[4.5]decan-1-one]",10 to 100 nM,100 to 500 nM,> 500 nM
"Cc1c([C@@H](C)Nc2ccnc3ccc(N4CCN(c5cnn(C)c5)CC4)cc23)cccc1C(F)(F)F [Compound 24, (R)-6-(4-(1-methyl-1H-pyrazol-4-yl)piperazin-1-yl)-N-(1-(2-methyl-3-(trifluoromethyl)phenyl)ethyl)quinolin-4-amine]",> 100 nM,100 to 500 nM,> 500 nM
"Cc1c([C@@H](C)Nc2ccnc3ccc(N4CCn5ncnc5C4)cc23)cccc1C(F)(F)F [Compound 25, (R)-6-(5,6-dihydro-[1,2,4]triazolo[1,5-a]pyrazin-7(8H)-yl)-N-(1-(2-methyl-3-(trifluoromethyl)phenyl)ethyl)quinolin-4-amine]",> 100 nM,100 to 500 nM,150 to 500 nM
